Experimental data published in the NIST ThermoML archive (doi:10.1021/je060271a).
Several values for one entry are separate records, joined by “and”; a condition that tells them apart may be missing. Identical values can stand only once. Numbers after ± are expanded uncertainties.

Conditions: 343.15 K, Liquid, Vibrating tube method

CCCCCC(=O)OCC(COC(=O)CCCCC)(COC(=O)CCCCC)COC(=O)CCCCC [pentaerythritol tetrahexanoate]
Conditions	mass density
242.7 kPa	957.2 ± 1.2 kg/m3
242.9 kPa	957.3 ± 1.2 kg/m3
243.1 kPa	957.3 ± 1.2 kg/m3
243.2 kPa	957.3 ± 1.2 kg/m3 and 957.2 ± 1.2 kg/m3
243.6 kPa	957.2 ± 1.2 kg/m3
243.9 kPa	957.3 ± 1.2 kg/m3 and 957.1 ± 1.2 kg/m3
244.3 kPa	957.3 ± 1.2 kg/m3
244.5 kPa	957.2 ± 1.2 kg/m3 and 957.3 ± 1.2 kg/m3
244.8 kPa	957.3 ± 1.2 kg/m3
245 kPa	957.2 ± 1.2 kg/m3 and 957.4 ± 1.2 kg/m3
245.3 kPa	957.3 ± 1.2 kg/m3 and 957.2 ± 1.2 kg/m3
245.5 kPa	957.2 ± 1.2 kg/m3
245.7 kPa	957.2 ± 1.2 kg/m3
245.9 kPa	957.3 ± 1.2 kg/m3
246.2 kPa	957.4 ± 1.2 kg/m3
246.4 kPa	957.3 ± 1.2 kg/m3
246.6 kPa	957.3 ± 1.2 kg/m3
249 kPa	957.2 ± 1.2 kg/m3
249.5 kPa	957.2 ± 1.2 kg/m3
249.9 kPa	957.4 ± 1.2 kg/m3
250 kPa	957.2 ± 1.2 kg/m3
250.2 kPa	957.1 ± 1.2 kg/m3
251.6 kPa	957.3 ± 1.2 kg/m3
251.8 kPa	957.3 ± 1.2 kg/m3 and 957.2 ± 1.2 kg/m3
251.9 kPa	957.3 ± 1.2 kg/m3
252.3 kPa	957.3 ± 1.2 kg/m3 and 957.2 ± 1.2 kg/m3
252.6 kPa	957.1 ± 1.2 kg/m3
252.8 kPa	957.2 ± 1.2 kg/m3
253.2 kPa	957.2 ± 1.2 kg/m3
253.3 kPa	957.3 ± 1.2 kg/m3 and 957.2 ± 1.2 kg/m3 and 957.4 ± 1.2 kg/m3
253.7 kPa	957.2 ± 1.2 kg/m3
254 kPa	957.2 ± 1.2 kg/m3
254.4 kPa	957.2 ± 1.2 kg/m3
254.9 kPa	957.3 ± 1.2 kg/m3
255.1 kPa	957.2 ± 1.2 kg/m3 and 957.3 ± 1.2 kg/m3
255.4 kPa	957.3 ± 1.2 kg/m3
255.6 kPa	957.4 ± 1.2 kg/m3
256.3 kPa	957.3 ± 1.2 kg/m3
256.5 kPa	957.1 ± 1.2 kg/m3
256.6 kPa	957.2 ± 1.2 kg/m3
256.8 kPa	957.2 ± 1.2 kg/m3
257 kPa	957.2 ± 1.2 kg/m3
257.3 kPa	957.3 ± 1.2 kg/m3
257.5 kPa	957.2 ± 1.2 kg/m3
257.7 kPa	957.3 ± 1.2 kg/m3
257.9 kPa	957.3 ± 1.2 kg/m3
258.2 kPa	957.2 ± 1.2 kg/m3
259.2 kPa	957.2 ± 1.2 kg/m3
259.6 kPa	957.4 ± 1.2 kg/m3
259.9 kPa	957.3 ± 1.2 kg/m3
260.1 kPa	957.3 ± 1.2 kg/m3
260.4 kPa	957.3 ± 1.2 kg/m3
260.6 kPa	957.3 ± 1.2 kg/m3
261 kPa	957.3 ± 1.2 kg/m3 and 957.2 ± 1.2 kg/m3
261.3 kPa	957.2 ± 1.2 kg/m3
261.5 kPa	957.2 ± 1.2 kg/m3
261.7 kPa	957.2 ± 1.2 kg/m3
261.8 kPa	957.3 ± 1.2 kg/m3
262.2 kPa	957.3 ± 1.2 kg/m3
262.5 kPa	957.4 ± 1.2 kg/m3
262.9 kPa	957.4 ± 1.2 kg/m3 and 957.2 ± 1.2 kg/m3
263 kPa	957.2 ± 1.2 kg/m3
263.4 kPa	957.1 ± 1.2 kg/m3 and 957.4 ± 1.2 kg/m3 and 957.3 ± 1.2 kg/m3
263.7 kPa	957.4 ± 1.2 kg/m3 and 957.3 ± 1.2 kg/m3
266.9 kPa	957.4 ± 1.2 kg/m3
270.7 kPa	957.2 ± 1.2 kg/m3
271.2 kPa	957.3 ± 1.2 kg/m3
273.5 kPa	957.3 ± 1.2 kg/m3
273.6 kPa	957.4 ± 1.2 kg/m3
274 kPa	957.3 ± 1.2 kg/m3
274.3 kPa	957.3 ± 1.2 kg/m3
275.2 kPa	957.3 ± 1.2 kg/m3
275.6 kPa	957.4 ± 1.2 kg/m3
275.7 kPa	957.4 ± 1.2 kg/m3
275.9 kPa	957.2 ± 1.2 kg/m3
276.1 kPa	957.4 ± 1.2 kg/m3
276.4 kPa	957.2 ± 1.2 kg/m3
276.6 kPa	957.4 ± 1.2 kg/m3
276.9 kPa	957.3 ± 1.2 kg/m3
277.3 kPa	957.3 ± 1.2 kg/m3
277.6 kPa	957.3 ± 1.2 kg/m3
278 kPa	957.3 ± 1.2 kg/m3
278.2 kPa	957.2 ± 1.2 kg/m3
278.3 kPa	957.2 ± 1.2 kg/m3
278.7 kPa	957.3 ± 1.2 kg/m3
279 kPa	957.3 ± 1.2 kg/m3
279.2 kPa	957.3 ± 1.2 kg/m3
279.4 kPa	957.2 ± 1.2 kg/m3
279.6 kPa	957.2 ± 1.2 kg/m3
285.3 kPa	957.4 ± 1.2 kg/m3
285.6 kPa	957.4 ± 1.2 kg/m3 and 957.2 ± 1.2 kg/m3
286.1 kPa	957.3 ± 1.2 kg/m3
286.3 kPa	957.3 ± 1.2 kg/m3
286.5 kPa	957.3 ± 1.2 kg/m3
286.7 kPa	957.3 ± 1.2 kg/m3
287 kPa	957.4 ± 1.2 kg/m3
287.2 kPa	957.1 ± 1.2 kg/m3
287.4 kPa	957.3 ± 1.2 kg/m3
287.5 kPa	957.2 ± 1.2 kg/m3
287.9 kPa	957.3 ± 1.2 kg/m3
288.2 kPa	957.2 ± 1.2 kg/m3
288.6 kPa	957.3 ± 1.2 kg/m3
288.7 kPa	957.2 ± 1.2 kg/m3
288.9 kPa	957.3 ± 1.2 kg/m3
289.1 kPa	957.3 ± 1.2 kg/m3
289.4 kPa	957.2 ± 1.2 kg/m3
289.8 kPa	957.2 ± 1.2 kg/m3 and 957.3 ± 1.2 kg/m3
291.2 kPa	957.3 ± 1.2 kg/m3
291.4 kPa	957.3 ± 1.2 kg/m3
291.5 kPa	957.4 ± 1.2 kg/m3 and 957.2 ± 1.2 kg/m3
291.9 kPa	957.4 ± 1.2 kg/m3
292.2 kPa	957.3 ± 1.2 kg/m3
292.4 kPa	957.3 ± 1.2 kg/m3 and 957.4 ± 1.2 kg/m3
292.7 kPa	957.4 ± 1.2 kg/m3
293.1 kPa	957.3 ± 1.2 kg/m3
293.4 kPa	957.3 ± 1.2 kg/m3
293.6 kPa	957.3 ± 1.2 kg/m3
294.6 kPa	957.3 ± 1.2 kg/m3
294.7 kPa	957.3 ± 1.2 kg/m3
296.4 kPa	957.4 ± 1.2 kg/m3 and 957.3 ± 1.2 kg/m3
296.6 kPa	957.3 ± 1.2 kg/m3
297.1 kPa	957.3 ± 1.2 kg/m3
297.3 kPa	957.3 ± 1.2 kg/m3
297.6 kPa	957.4 ± 1.2 kg/m3
298 kPa	957.4 ± 1.2 kg/m3 and 957.3 ± 1.2 kg/m3 and 957.2 ± 1.2 kg/m3
298.5 kPa	957.3 ± 1.2 kg/m3
298.8 kPa	957.4 ± 1.2 kg/m3
299 kPa	957.2 ± 1.2 kg/m3
299.9 kPa	957.3 ± 1.2 kg/m3
305.4 kPa	957.4 ± 1.2 kg/m3
305.8 kPa	957.2 ± 1.2 kg/m3
306 kPa	957.3 ± 1.2 kg/m3
306.3 kPa	957.4 ± 1.2 kg/m3
306.8 kPa	957.4 ± 1.2 kg/m3 and 957.3 ± 1.2 kg/m3
307.5 kPa	957.3 ± 1.2 kg/m3
307.9 kPa	957.3 ± 1.2 kg/m3
308.2 kPa	957.3 ± 1.2 kg/m3
308.4 kPa	957.2 ± 1.2 kg/m3
308.7 kPa	957.5 ± 1.2 kg/m3 and 957.3 ± 1.2 kg/m3
309.1 kPa	957.3 ± 1.2 kg/m3
309.3 kPa	957.3 ± 1.2 kg/m3
309.4 kPa	957.4 ± 1.2 kg/m3
309.8 kPa	957.1 ± 1.2 kg/m3
310.6 kPa	957.3 ± 1.2 kg/m3
311.2 kPa	957.3 ± 1.2 kg/m3
